This note sets out measurements from ChEMBL document CHEMBL6182934, “Photo-clenbuterol: Optical Control of β2-Adrenergic Receptor Signaling by Photoswitchable Ligand Efficacy” (J Med Chem, 2025).

Structures are written as SMILES.

This series in a line: Photothermal stability of compound in HBSS buffer assessed as thermal relaxation half life measured after pre-illumination of compound to reach cis-isomer. In kind it is physicochemical.
In general, half-life refers to the time in which the quantity being followed falls by half. On to `CC(C)(C)NCC(O)c1cc(Cl)c(/N=N/c2ccccc2)c(C#N)c1` (racemic), for which the half-life was 11 days.
Regarding `CC(C)(C)NCC(O)c1ccc(/N=N/c2ccccc2)c(Cl)c1` (racemic), the half-life is 38 days.
Turning to `CC(C)(C)NCC(O)c1cc(Cl)c(/N=N/c2c(Cl)cccc2Cl)c(Cl)c1` (racemic), the half-life was 26 days.
The result for `CC(C)(C)NCC(O)c1ccc(/N=N/c2ccccc2)cc1` (racemic) reads 29 days.
Turning to `CC(C)(C)NCC(O)c1cc(Cl)c(/N=N/c2ccccc2)c(Cl)c1` (racemic), the half-life was 112 days.
